Test results published in patent US7067500B2, “Betaines as adjuvants to susceptibility testing and antimicrobial therapy” (priority 1997, dated 2006).
Entries after “also recorded” stand apart in the source; their conditions may differ. Structures can show the parent of a compound that is named as a salt.

Test system: M. tuberculosis isolates (Table 8)
Test: MTB isolates vs. antibiotic screen in the presence and absence of CB-18
Conditions: CB-18 17 μg/ml

CCCCCCCCCCCCCCCCCC[N+](C)(C)CCCC(=O)[O-] [CB-18, N-(3-carboxypropyl)-N,N-dimethyl-1-octadecanaminium, inner salt]
CB-18 induced sensitivity to antibiotics tested (061-TBR (INH resistant)): exacerbated in the presence of CB-18; also recorded: Minor, if any, CB-18 induced sensitivity to
CB-18 induced sensitivity to antibiotics tested (896-BAL (multi drug resistant: INH, RIF & PZA)): Minimal, if any, CB-18 induced sensitivity to
